EP4671245A1, “HETEROAROMATIC RING COMPOUND SERVING AS CDK7 KINASE INHIBITOR, PREPARATION THEREOF, AND USE THEREOF” (Jiangsu Chia Tai Fenghai Pharmaceutical Co., Ltd., priority 2023, dated 2024)
Read-outs that look alike come from different tables or passages of the source.

Experiments:
[1] = Pharmacokinetic study in ICR mice (oral gavage and intravenous, plasma LC-MS/MS); assay type: in vivo; settings: for Vd / AUC(0-t) / Cmax / MRT last / clearance / half-life / AUC(0-inf) / concentration at 8 h / Tmax / bioavailability: mouse, plasma; for Vd: iv, 10 mg/kg; for AUC(0-inf): read-out: AUCINF_obs; for concentration at 8 h: read-out: Clast; for bioavailability: read-out: Bioavailability (F)
Protocol: Each group consisted of 12 animals. The dosing vehicle was 10% DMSO + 10% polyoxyethylene castor oil + 80% physiological saline solution. The oral gavage group was fasted for approximately 12 hours prior to dosing and allowed food 4 hours after administration. Water was not restricted during the experiment. Approximately 0.2 mL of blood was collected from the orbital sinus at the following time points: pre-dose and 5, 15, 30 minutes, 1, 2, 4, 6, 8, and 24 hours post-dose. Blood was collected into EP tubes containing EDTA-K2 as anticoagulant and placed on ice. Plasma was separated by centrifugation at 3500 rpm for 5 minutes at 4°C within 1 hour of blood collection. Plasma samples were stored at -20°C until analysis. […] Pharmacokinetic parameters were calculated using WinNonlin software.

HCC70 = test: Anti-proliferative activity on tumor cells (Cell Titer-Glo), HCC70; assay type: cell-based; settings: HCC70, 7 days
Protocol: (§1) Tumor cell lines including HCT-116, MDA-MB-468, Jurkat, HCC70, and MDA-MB-436 were cultured in their respective growth media. Cells were seeded into 384-well plates at densities of 600, 300, 800, 800, and 1000 cells/well (in 18 µL/well), respectively, and incubated overnight at 37°C under 5% CO2 (MDA-MB-468 cells were incubated overnight at 37°C under 100% air). Test sample stock solutions were prepared in DMSO at 10 mM and serially diluted 1:3 across 10 concentrations in 1% DMSO to prepare 10X intermediate dilution plates. Then, 2 µL/well of the 1oX intermediate dilution was added to the cell plates to achieve the final assay concentrations: 10000, 3333, 1111, 370, 123, 41, 14, 4.6, and 1.5 nM. HCT-116, Jurkat, and HCC70 cell plates were incubated for 3, 7, and 7 days at 37°C with 5% CO2, respectively (MDA-MB-468 cell plates were incubated for 7 days at 37°C with 100% air). After treatment, Cell Titer-Glo reagent was removed from -20°C storage and equilibrated to room temperature. Then, 20 µL/well of Cell Titer-Glo reagent was added to each well and incubated for 10 minutes. After the 10-minute incubation, luminescence was measured using a microplate reader. Data were analyzed using Excel and the IC50 values were calculated using GraphPad Prism 7.0 software.

HCT-116 = test: Anti-proliferative activity on tumor cells (Cell Titer-Glo), HCT-116; assay type: cell-based; settings: HCT-116, 3 days
Protocol: as §1

MDA-MB-468 = test: Anti-proliferative activity on tumor cells (Cell Titer-Glo), MDA-MB-468; assay type: cell-based; settings: MDA-MB-468, 7 days, 100% air
Protocol: as §1

Jurkat = test: Anti-proliferative activity on tumor cells (Cell Titer-Glo), Jurkat; assay type: cell-based; settings: 7 days
Protocol: as §1

CDK7/CycH/MAT1 = CDK7/CycH/MAT1 (Homo sapiens, UniProt P50613); test: Inhibition of CDK7/CycH/MAT1 kinase activity (ADP-Glo); assay type: biochemical; settings: IC50, ATP 30 µM, substrate 0.1 µM, 60 minutes at 25°C
Sequence of CDK7/CycH/MAT1 (P50613 whole entry, species assumed): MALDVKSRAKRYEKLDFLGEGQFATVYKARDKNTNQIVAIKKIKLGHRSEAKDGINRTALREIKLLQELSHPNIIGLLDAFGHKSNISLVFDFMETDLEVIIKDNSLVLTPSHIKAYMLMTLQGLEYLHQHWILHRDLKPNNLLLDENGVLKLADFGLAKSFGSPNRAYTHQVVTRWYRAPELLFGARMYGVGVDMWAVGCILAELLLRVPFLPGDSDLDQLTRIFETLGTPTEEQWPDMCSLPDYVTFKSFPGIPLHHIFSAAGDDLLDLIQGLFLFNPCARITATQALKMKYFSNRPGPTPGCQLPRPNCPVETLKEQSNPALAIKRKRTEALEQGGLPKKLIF
Sequence of CDK7/CycH/MAT1 (P51946 whole entry partner, species assumed): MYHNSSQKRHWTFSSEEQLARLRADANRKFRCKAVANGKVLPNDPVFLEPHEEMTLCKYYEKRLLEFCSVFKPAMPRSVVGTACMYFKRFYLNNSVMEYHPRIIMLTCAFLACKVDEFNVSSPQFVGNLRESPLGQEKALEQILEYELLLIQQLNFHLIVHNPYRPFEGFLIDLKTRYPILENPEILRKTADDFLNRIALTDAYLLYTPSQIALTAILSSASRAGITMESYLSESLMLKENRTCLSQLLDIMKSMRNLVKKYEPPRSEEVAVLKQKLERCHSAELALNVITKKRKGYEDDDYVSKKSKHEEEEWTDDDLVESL
Sequence of CDK7/CycH/MAT1 (P51948 whole entry partner, species assumed): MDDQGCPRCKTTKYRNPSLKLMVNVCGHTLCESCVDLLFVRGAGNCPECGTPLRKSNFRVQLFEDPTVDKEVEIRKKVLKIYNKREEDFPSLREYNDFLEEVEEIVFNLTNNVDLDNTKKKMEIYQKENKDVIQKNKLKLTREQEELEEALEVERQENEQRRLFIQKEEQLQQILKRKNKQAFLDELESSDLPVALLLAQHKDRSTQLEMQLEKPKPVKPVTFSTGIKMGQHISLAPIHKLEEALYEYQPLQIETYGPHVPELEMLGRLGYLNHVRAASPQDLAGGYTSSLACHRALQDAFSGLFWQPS
Protocol: The CDK7/CycH/MAT1 protein was thawed on ice, and the remaining reagents were equilibrated to room temperature. The CDK7/CycH/MAT1 protein and ATP/substrate were diluted to the corresponding concentrations using enzyme reaction buffer (50 mM Hepes, 10 mM MgCl2, 0.01% Brij35, 1 mM EGTA, 2 mM DTT). The test compounds were added to a 384-well white low-volume enzyme assay plate at 20 nL per well, followed by the addition of the prepared CDK7/CycH/MAT1 protein (2 µL/well), mixed well, and incubated at 25°C for 10 minutes. The reaction was initiated by adding ATP/substrate and allowed to proceed at 25°C for 60 minutes. The final concentrations of each component in the enzyme reaction system were as follows: CDK7/CycH/MAT1 protein, 3.5 ng/µL; ATP, 30 µM; substrate, 0.1 µM. The concentrations of the test compounds ranged from high to low as follows: 5000, 1667, 556, 185, 62, 21, 7, 2, 1, and 0.3 nM. After completion of the enzymatic reaction, 4 µL of ADP-Glo Reagent was added to each well and incubated at 25°C for 40 minutes. Subsequently, 8 µL of Kinase Detection Reagent was added to each well and incubated at25°C for another 40 minutes. Chemiluminescence signals were recorded using a microplate reader, and the data were used to generate dose-response curves and calculate IC50 values.

[2] = male ICR mice, iv. 10mg/kg, read-out: Vss
[3] = male ICR mice, iv. 10mg/kg, read-out: Vz

CC(C)c1cnn2c(NCc3ccccc3)cc(NC[C@H]3CCNC[C@@H]3O)nc12 [CT7001, reference compound]
Tlast ([1]; male ICR mice, iv. 10mg/kg): 8 H
Tlast ([1]; male ICR mice, po. 10mg/kg): 8 h
Vz ([1]; male ICR mice, po. 10mg/kg): 55.15 L/kg
Vd ([1]; male, ICR, iv. 10mg/kg, read-out: Vss): 1.91 L/kg
Vd ([1]; male, ICR, iv. 10mg/kg, read-out: Vz): 2.62 L/kg
AUC(0-t) ([1]; male ICR mice, iv. 10mg/kg): 8120 ng·h/mL
Cmax ([1]; male ICR mice, iv. 10mg/kg): 17400 ng/mL
MRT last ([1]; male ICR mice, iv. 10mg/kg): 1.3 h
clearance ([1]; male ICR mice, iv. 10mg/kg): 20 mL/min/kg
half-life ([1]; male ICR mice, iv. 10mg/kg): 1.5 h
AUC(0-inf) ([1]; male ICR mice, iv. 10mg/kg): 8400 ng·h/mL
concentration at 8 h ([1]; male ICR mice, iv. 10mg/kg): 126 ng/mL
AUC(0-t) ([1]; male ICR mice, po. 10mg/kg): 541 ng·h/mL
Cmax ([1]; male ICR mice, po. 10mg/kg): 99 ng/mL
MRT last ([1]; male ICR mice, po. 10mg/kg): 3.6 h
Tmax ([1]; male ICR mice, po. 10mg/kg): 2 h
half-life ([1]; male ICR mice, po. 10mg/kg): 2.5 h
AUC(0-inf) ([1]; male ICR mice, po. 10mg/kg): 653 ng·h/mL
bioavailability ([1]; male ICR mice, po. 10mg/kg): 7.8%
concentration at 8 h ([1]; male ICR mice, po. 10mg/kg): 31 ng/mL
IC30 (HCC70): 0.5189 µM
IC30 (HCT-116): 0.4637 µM
IC30 (MDA-MB-468): 0.6022 µM
IC30 (Jurkat): 0.4733 µM

[2H]C([2H])(Nc1cc(NC[C@H]2CCNC[C@@H]2O)nc2c(C(C)C)cnn12)c1ccccc1 [Compound 8]
IC30 (HCT-116): 0.2317 µM
IC30 (MDA-MB-468): 0.3504 µM
IC30 (Jurkat): 0.3294 µM

N#Cc1cnn2c(NCc3ccccc3)cc(NC[C@H]3CCNC[C@@H]3O)nc12 [Compound 22]
IC50 (CDK7/CycH/MAT1): 0.00431 µM
IC30 (HCT-116): 3.453 µM
IC30 (MDA-MB-468): 2.91 µM
IC30 (Jurkat): 4.087 µM

C#CCNc1cc(NC[C@H]2CCNC[C@@H]2O)nc2c(C(C)C)cnn12 [Compound 33]
Clast ([1]; male ICR mice, iv. 10mg/kg): 6 ng/mL
T1/2 ([1]; male ICR mice, iv. 10mg/kg): longer half-life
Tlast ([1]; male ICR mice, iv. 10mg/kg): 24 H
Vss ([1]; male ICR mice, iv. 10mg/kg): higher steady-state apparent volume of distribution
Clast ([1]; male ICR mice, po. 10mg/kg): 5 ng/mL
Tlast ([1]; male ICR mice, po. 10mg/kg): 6 h
Vd [1, 2]: 27.8 L/kg
Vd [1, 3]: 90 L/kg
AUC(0-t) ([1]; male ICR mice, iv. 10mg/kg): 1510 ng·h/mL
Cmax ([1]; male ICR mice, iv. 10mg/kg): 990 ng/mL
MRT last ([1]; male ICR mice, iv. 10mg/kg): 2.4 h
clearance ([1]; male ICR mice, iv. 10mg/kg): 104 mL/min/kg
half-life ([1]; male ICR mice, iv. 10mg/kg): 10 h
AUC(0-inf) ([1]; male ICR mice, iv. 10mg/kg): 1600 ng·h/mL
AUC(0-t) ([1]; male ICR mice, po. 10mg/kg): 65 ng·h/mL
Cmax ([1]; male ICR mice, po. 10mg/kg): 26 ng/mL
MRT last ([1]; male ICR mice, po. 10mg/kg): 2.4 h
Tmax ([1]; male ICR mice, po. 10mg/kg): 0.5 h
half-life ([1]; male ICR mice, po. 10mg/kg): 2.9 h
AUC(0-inf) ([1]; male ICR mice, po. 10mg/kg): 88 ng·h/mL
bioavailability ([1]; male ICR mice, po. 10mg/kg): 5.5%
IC50 (CDK7/CycH/MAT1): 0.0027 µM
IC30 (HCC70): 0.5019 µM
IC30 (HCT-116): 0.7883 µM
IC30 (MDA-MB-468): 1.101 µM
IC30 (Jurkat): 0.2008 µM

CC#CCNc1cc(NC[C@H]2CCNC[C@@H]2O)nc2c(C(C)C)cnn12 [Compound 38]
IC50 (CDK7/CycH/MAT1): 0.0189 µM
IC30 (HCC70): 0.9688 µM
IC30 (HCT-116): 0.3913 µM
IC30 (MDA-MB-468): 0.7659 µM
IC30 (Jurkat): 0.8588 µM

C=CCNc1cc(NC[C@H]2CCNC[C@@H]2O)nc2c(C(C)C)cnn12 [Compound 41]
Clast ([1]; male ICR mice, iv. 10mg/kg): 19 ng/mL
Tlast ([1]; male ICR mice, iv. 10mg/kg): 8 H
Vss ([1]; male ICR mice, iv. 10mg/kg): higher steady-state apparent volume of distribution
Bioavailability (F) ([1]; male ICR mice, po. 10mg/kg): better oral bioavailability
Clast ([1]; male ICR mice, po. 10mg/kg): 8 ng/mL
Tlast ([1]; male ICR mice, po. 10mg/kg): 8 h
Vd [1, 2]: 4.22 L/kg
Vd [1, 3]: 10.9 L/kg
AUC(0-t) ([1]; male ICR mice, iv. 10mg/kg): 2960 ng·h/mL
Cmax ([1]; male ICR mice, iv. 10mg/kg): 4360 ng/mL
MRT last ([1]; male ICR mice, iv. 10mg/kg): 1.1 h
clearance ([1]; male ICR mice, iv. 10mg/kg): 55 mL/min/kg
half-life ([1]; male ICR mice, iv. 10mg/kg): 2.3 h
AUC(0-inf) ([1]; male ICR mice, iv. 10mg/kg): 3020 ng·h/mL
AUC(0-t) ([1]; male ICR mice, po. 10mg/kg): 445 ng·h/mL
Cmax ([1]; male ICR mice, po. 10mg/kg): 150 ng/mL
MRT last ([1]; male ICR mice, po. 10mg/kg): 2.5 h
Tmax ([1]; male ICR mice, po. 10mg/kg): 2 h
half-life ([1]; male ICR mice, po. 10mg/kg): 1.5 h
AUC(0-inf) ([1]; male ICR mice, po. 10mg/kg): 462 ng·h/mL
bioavailability ([1]; male ICR mice, po. 10mg/kg): 15%
IC50 (CDK7/CycH/MAT1): 0.0063 µM

CC(C)c1cnn2c(NCC3CC3)cc(NC[C@H]3CCNC[C@@H]3O)nc12 [Compound 45]
IC50 (CDK7/CycH/MAT1): 0.0212 µM
IC30 (HCC70): 0.5964 µM
IC30 (HCT-116): 0.4294 µM
IC30 (MDA-MB-468): 0.8518 µM
IC30 (Jurkat): 1.126 µM
